Data: ChEMBL document CHEMBL1150174, “Lyngbyaloside B, a new glycoside macrolide from a Palauan marine cyanobacterium, Lyngbya sp” (J Nat Prod, 2002)

What was measured:
KB = test: Cytotoxicity against human KB cells; assay type: functional, cell-based
LoVo = test: Cytotoxicity against human LoVo cells; assay type: functional, cell-based

CO[C@@H]1[C@@H](OC)[C@@H](O)[C@H](O[C@H]2C[C@@]3(O)CC(=O)O[C@](C)(CC/C=C/C=C/Br)C[C@@H](O)[C@H](C)CC[C@H](O3)[C@@H]2C)O[C@H]1C [LYNGBYALOSIDE B]
IC50 (KB): 4.3 µM | IC50 (LoVo): 15 µM
